Assay [1] in a line: Induction of TCEP oxidation at 1 mM in 80% d6-acetone and 20% d6-DMSO incubated for 2 hrs by 15N-1H NMR spectroscopy relative to control.
For another assay, the species on record is Homo sapiens. Kind of assay: Inhibition of recombinant human C-terminal 6His-tagged PTPN22 G126V/V147G double mutant expressed in bacterial expression system assessed as rate of product DiFMU formed at 2 uM using DiFMUP as substrate preincubated with enzyme for 2.5 hrs followed by substrate addition measured for 1 min by fluorescence based assay (reference value: 11.9 nM/sec).

Assay [2] is described as follows: Induction of TCEP oxidation assessed as increase in rate of reduction of resazurin at 5 uM incubated up to 2 hrs by resazurin based assay. (Resazurin is reduced to fluorescent resorufin, in cell work by metabolically active cells.)
Assay [3] addresses T1, Receptor-type tyrosine-protein phosphatase O (Homo sapiens) (UniProt Q16827).
T1 sequence (whole entry): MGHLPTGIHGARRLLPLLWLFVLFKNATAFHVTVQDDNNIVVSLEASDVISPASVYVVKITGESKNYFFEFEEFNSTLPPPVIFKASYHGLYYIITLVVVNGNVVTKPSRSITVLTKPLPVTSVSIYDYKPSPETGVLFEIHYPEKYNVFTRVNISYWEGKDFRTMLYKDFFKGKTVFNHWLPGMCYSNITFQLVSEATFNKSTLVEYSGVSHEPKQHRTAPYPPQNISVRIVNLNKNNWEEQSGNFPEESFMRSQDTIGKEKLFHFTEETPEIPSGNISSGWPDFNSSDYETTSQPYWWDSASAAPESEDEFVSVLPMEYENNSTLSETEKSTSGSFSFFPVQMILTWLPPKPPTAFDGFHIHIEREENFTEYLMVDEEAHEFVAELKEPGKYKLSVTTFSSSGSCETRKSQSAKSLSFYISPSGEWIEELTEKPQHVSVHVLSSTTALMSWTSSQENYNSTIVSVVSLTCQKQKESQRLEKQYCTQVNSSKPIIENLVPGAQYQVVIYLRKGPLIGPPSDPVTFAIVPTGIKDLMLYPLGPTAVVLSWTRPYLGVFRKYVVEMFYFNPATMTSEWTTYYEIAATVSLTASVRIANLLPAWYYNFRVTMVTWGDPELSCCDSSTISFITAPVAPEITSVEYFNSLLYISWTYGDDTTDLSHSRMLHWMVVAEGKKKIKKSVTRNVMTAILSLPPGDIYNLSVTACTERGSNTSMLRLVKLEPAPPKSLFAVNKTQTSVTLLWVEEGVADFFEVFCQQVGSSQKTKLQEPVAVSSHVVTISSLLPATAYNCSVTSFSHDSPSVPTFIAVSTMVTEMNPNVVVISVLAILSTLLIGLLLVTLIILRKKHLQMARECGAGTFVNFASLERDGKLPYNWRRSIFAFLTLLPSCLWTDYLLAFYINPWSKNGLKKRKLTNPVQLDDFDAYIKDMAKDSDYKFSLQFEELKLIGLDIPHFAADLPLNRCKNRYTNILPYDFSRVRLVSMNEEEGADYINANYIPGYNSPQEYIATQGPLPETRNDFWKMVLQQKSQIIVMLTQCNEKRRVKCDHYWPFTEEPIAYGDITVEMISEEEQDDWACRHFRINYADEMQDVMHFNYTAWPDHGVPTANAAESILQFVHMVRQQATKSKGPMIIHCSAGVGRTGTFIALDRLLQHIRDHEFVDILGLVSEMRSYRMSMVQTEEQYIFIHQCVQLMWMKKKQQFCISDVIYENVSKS
The assay can be described thus: Inhibition of recombinant human N-terminal His-tagged PTPRO expressed in bacterial expression system assessed as enzyme residual activity at 2 uM using DiFMUP as substrate preincubated with enzyme for 2.5 hrs prior to substrate addition measured for 1 min by fluorescence based assay.

Assay [4] deals with T1, Receptor-type tyrosine-protein phosphatase O (Homo sapiens). Kind of assay: Inhibition of recombinant human N-terminal His-tagged PTPRO expressed in bacterial expression system assessed as rate of product DiFMU formed at 2 uM using DiFMUP as substrate preincubated with enzyme for 2.5 hrs prior to substrate addition measured for 1 min by fluorescence based assay (reference value: 209.7 nM/sec).

The target of assay [5] is T2, Tyrosine-protein phosphatase non-receptor type 1 (Homo sapiens) (UniProt P18031).
T2 sequence (whole entry): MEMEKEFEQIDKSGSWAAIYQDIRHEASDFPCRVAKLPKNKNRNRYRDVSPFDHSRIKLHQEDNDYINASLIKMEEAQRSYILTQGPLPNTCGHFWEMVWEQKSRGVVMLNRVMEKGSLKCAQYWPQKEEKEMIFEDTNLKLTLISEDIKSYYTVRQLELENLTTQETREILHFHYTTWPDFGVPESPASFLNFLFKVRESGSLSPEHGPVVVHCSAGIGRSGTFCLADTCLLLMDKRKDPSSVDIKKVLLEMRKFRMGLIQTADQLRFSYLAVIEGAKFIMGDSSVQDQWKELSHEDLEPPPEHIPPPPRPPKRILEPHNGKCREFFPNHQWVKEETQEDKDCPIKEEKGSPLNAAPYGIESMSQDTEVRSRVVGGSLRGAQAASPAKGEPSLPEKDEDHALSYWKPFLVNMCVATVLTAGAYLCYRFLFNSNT
The assay can be described thus: Inhibition of human PTP1B at 25 nM using DiFMUP as substrate preincubated with enzyme prior to substrate addition by fluorescence based assay. As to conditions: TDE = time-dependent effect.

The target in assay [6] is T3, Receptor-type tyrosine-protein phosphatase C (Homo sapiens) (UniProt P08575).
T3 sequence (whole entry): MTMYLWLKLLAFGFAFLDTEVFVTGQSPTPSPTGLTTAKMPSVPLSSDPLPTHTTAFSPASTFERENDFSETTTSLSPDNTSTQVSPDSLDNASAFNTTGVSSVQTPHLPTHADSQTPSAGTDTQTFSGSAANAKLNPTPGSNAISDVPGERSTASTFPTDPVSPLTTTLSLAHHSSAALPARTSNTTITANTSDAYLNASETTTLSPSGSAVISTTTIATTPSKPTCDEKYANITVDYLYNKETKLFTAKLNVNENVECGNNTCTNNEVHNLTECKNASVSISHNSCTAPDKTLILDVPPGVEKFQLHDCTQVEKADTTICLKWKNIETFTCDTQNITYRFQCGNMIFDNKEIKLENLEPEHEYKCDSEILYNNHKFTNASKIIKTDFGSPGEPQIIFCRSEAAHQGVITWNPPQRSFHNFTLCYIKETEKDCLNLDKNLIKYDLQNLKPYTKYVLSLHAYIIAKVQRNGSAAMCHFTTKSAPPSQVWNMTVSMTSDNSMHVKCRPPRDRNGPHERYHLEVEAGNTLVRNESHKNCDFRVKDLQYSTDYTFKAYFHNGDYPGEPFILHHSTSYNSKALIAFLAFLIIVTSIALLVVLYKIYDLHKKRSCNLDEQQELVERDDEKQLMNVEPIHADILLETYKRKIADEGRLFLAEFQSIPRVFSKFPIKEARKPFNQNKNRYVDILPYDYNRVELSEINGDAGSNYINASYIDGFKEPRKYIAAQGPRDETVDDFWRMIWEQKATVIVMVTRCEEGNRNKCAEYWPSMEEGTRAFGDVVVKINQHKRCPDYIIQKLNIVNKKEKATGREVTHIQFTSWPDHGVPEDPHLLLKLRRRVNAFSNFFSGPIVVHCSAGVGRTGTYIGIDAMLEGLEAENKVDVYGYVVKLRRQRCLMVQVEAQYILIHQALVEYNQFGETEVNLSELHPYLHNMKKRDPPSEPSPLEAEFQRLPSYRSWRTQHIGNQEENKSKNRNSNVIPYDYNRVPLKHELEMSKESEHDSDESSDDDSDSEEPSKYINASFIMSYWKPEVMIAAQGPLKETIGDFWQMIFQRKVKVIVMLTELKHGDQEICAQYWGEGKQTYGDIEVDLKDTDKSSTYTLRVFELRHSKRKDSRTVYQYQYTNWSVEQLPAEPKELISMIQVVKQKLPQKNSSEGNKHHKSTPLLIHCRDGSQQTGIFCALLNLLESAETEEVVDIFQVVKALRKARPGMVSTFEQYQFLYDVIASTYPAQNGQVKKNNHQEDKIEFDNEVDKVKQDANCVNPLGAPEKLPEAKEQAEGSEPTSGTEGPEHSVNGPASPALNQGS
Kind of assay: Inhibition of C-terminal 6His-tagged PTPRC (627-1228 residues) (unknown origin) expressed in Escherichia coli BL21 (DE3) at 2 uM using DiFMUP as substrate preincubated with enzyme and catalase for 2.5 hrs prior to substrate addition measured for 1 min by fluorescence based assay.

Assay [7] can be described thus: Induction of glutathione oxidation at 1 mM incubated for 2 hrs in 80% d6-DMSO and 20% D2O by 15N-1H NMR spectroscopy relative to control.
Assay [8] addresses Protein tyrosine phosphatase type IVA 3 (Mus musculus) (UniProt Q9D658). The assay can be described thus: Inhibition of mouse His-tagged wild type PRL3 at 0.6 uM using DiFMUP as substrate preincubated with enzyme for 10 mins prior to substrate addition by fluorescence based assay relative to control.
The nature of assay [9]: Induction of TCEP oxidation assessed as increase in rate of reduction of resazurin at 5 uM after 3 to 5 secs by resazurin based assay.
A further assay is filed under the species Mus musculus. The assay can be described thus: Inhibition of mouse His-tagged PRL3 C49A mutant at 0.6 uM using DiFMUP as substrate preincubated with enzyme for 10 mins prior to substrate addition by fluorescence based assay relative to control.

Calls of active or inactive are those of the source. The rule behind the calls is not given here.

Experimental findings from ChEMBL document CHEMBL4373652, “Mechanism of thienopyridone and iminothienopyridinedione inhibition of protein phosphatases” (Medchemcomm, 2019) are described below.

Sequence of Protein tyrosine phosphatase type IVA 3 (Mus musculus) (Q9D658 whole entry): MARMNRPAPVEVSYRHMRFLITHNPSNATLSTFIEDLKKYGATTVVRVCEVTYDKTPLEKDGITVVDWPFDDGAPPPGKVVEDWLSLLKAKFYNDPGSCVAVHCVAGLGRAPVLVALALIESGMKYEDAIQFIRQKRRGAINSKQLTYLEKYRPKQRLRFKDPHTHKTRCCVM

The molecule `N=C1C(=O)NC(=O)c2cc(-c3ccccc3)sc21` showed a fold change (FC) in assay [1] of 20. Also, the Activity in the assay filed under Homo sapiens worked out at 0.3 nM/s; in assay [3], 7.3%; in [4], 15.3 nM/s. For the same molecule, the result in assay [2] was Active. The inhibition (usually the relative decrease from the control value, in per cent) in [5] is “Tde”. The inhibition entry in [6] was “inactive”.

In the case of `Nc1c[nH]c(=O)c2cc(-c3ccccc3)sc12`, in assay [1], the fold change (FC) was 5. The molecule further came in with an Activity in [7] of 70%. Also, the inhibition in [8] was 55%; in assay [5] it was “Tde”; in the assay listed under Mus musculus, 10%. In addition, the outcome in [2] and in [9] was Active.
